{"source": "patent US6447997B1", "about": "“Gene coding for GADD153 as a clinical diagnostic and prognostic in cancer therapy” (Research Development Foundation, priority 1997, dated 2002)", "key": {"GADD153 mRNA": {"tested_on": "GADD153 mRNA", "experiment": "GADD153 mRNA level in UMSCC10b xenografts in nude mice after cDDP", "assay_type": "in vivo", "description": "(§1) The various aspects of the invention are also useful for xenografted tumors. Nude mice were inoculated s.c. with human UMSCC10b tumor cells, and then treated with cDDP (0, 10, 15, 30 or 50 mg/kg cDDP i.p.) when the tumors reached 1 ml in volume. FIG. 5a depicts the results obtained when tumors were harvested at 24 h after cDDP treatment. […] The time course of the change in message level in the xenografts was similar to that observed with in vitro exposure of the cells (FIG. 5b). Thus, GADD153 mRNA levels can be increased in vivo by cDDP doses around the maximum tolerated dose in this system (15-20 mg/kg cDDP).\nUMSCC10b cells were injected subcutaneously over the shoulder of athymic (BALB/c nu/nu) female mice, 3-4 weeks of age (Harlan Sprague Dawley, Indianapolis, Ind.). The xenografts were allowed to grow until they reached approximately […] in volume, at which time cDDP treatment was initiated. […]\nGADD153 message levels were quantified using a modification of the technique reported by Horikoshi et al (20). […] PCR products were separated on a 8 M (6%) acrylamide gel and analyzed using a Molecular Imaging System (BioRad, Hercules, Calif.). For each RNA sample to be analyzed, a series of PCR reactions was performed to generate a graph of the amount of PCR product as a function of input CDNA for both GADD153 and β-ACTIN. […]"}, "[1]": {"experiment": "Maximum tolerated dose of cDDP in the nude mouse xenograft system", "assay_type": "in vivo", "conditions": "nude mice, i.p.", "description": "as §1"}}}
{"molecule": "[NH2][Pt]([NH2])([Cl])[Cl]", "note": "[cDDP, cisplatin]", "values": [{"measurement": "time of return of GADD153 mRNA toward basal levels in vivo", "setting": "GADD153 mRNA; UMSCC10b xenografts after treatment", "value": "≤ 96", "unit": "h"}, {"measurement": "GADD153 mRNA levels in xenografts", "setting": "GADD153 mRNA; tumors harvested 24 h after cDDP i.p., 0-50 mg/kg", "value": "increased as a function of cDDP dose"}, {"measurement": "maximum tolerated dose", "setting": "[1]", "value": "15 to 20", "unit": "mg/kg"}]}
